The record followed here is PubChem BioAssay (NCI).

Some test systems named below: MCF7 breast; OVCAR-4 ovarian; IGROV1 ovarian; LOX IMVI melanoma; DU-145 prostate; TK-10 renal; SR leukemia; PC-3 prostate; SF-268 CNS; HOP-92 NSCLC.
What all share (assay): growth of human tumour cells (NCI), 48 h

Structures are written as SMILES. Where “and” joins values, the source holds several entries; their conditions need not be identical. Equal entries are not always repeated.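 Following 48 hours of exposure in 96-well plates, responses at five concentrations were used to interpolate endpoints linearly. GI50: concentration for 50% inhibition of growth. TGI denotes the concentration required for complete inhibition of growth.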 A value given as a limit tells only on which side of the number the result lay.

Take `C[C@@H](N)C1CCC(C(=O)Nc2ccncc2)CC1` (some centres undefined): the GI50 in the assay on MCF7 breast was greater than 100000 nM; in the assay on OVCAR-4 ovarian, greater than 100000 nM; with IGROV1 ovarian, 81600 nM; with LOX IMVI melanoma, greater than 100000 nM; with DU-145 prostate, greater than 100000 nM; in the assay on TK-10 renal, 8700 nM. In addition, the GI50 with SR leukemia is 36400 nM; in the assay on PC-3 prostate, greater than 100000 nM; in the assay with SF-268 CNS, greater than 83000 nM; with HOP-92 NSCLC, 855 nM. The TGI in the assay on MCF7 breast, with OVCAR-4 ovarian, in the assay with IGROV1 ovarian, with LOX IMVI melanoma, in the assay with DU-145 prostate and with TK-10 renal was greater than 100000 nM in each case. Besides, the TGI in the assay with SR leukemia, with PC-3 prostate, in the assay with SF-268 CNS and with HOP-92 NSCLC was greater than 100000 nM throughout.

Turning to `C/C1=C/C(=O)O[C@@H]2C[C@@H](CC[C@H](C)/C=C\C=C\CC1)O[C@@](O)([C@@H]1CSC(=O)N1CO)C2`, the GI50 is 13100 nM in the assay with MCF7 breast; 176 nM with OVCAR-4 ovarian; 25.1 nM in the assay on IGROV1 ovarian; 22.8 nM with LOX IMVI melanoma; 239 nM with DU-145 prostate; 92.1 nM with TK-10 renal. Moreover, the GI50 in the assay with SR leukemia is 154 nM; in the assay with PC-3 prostate, 36.7 nM; with SF-268 CNS it was 41.8 nM; in the assay on HOP-92 NSCLC, 16.5 nM. For the same compound, the TGI in the assay on MCF7 breast is 37700 nM; with OVCAR-4 ovarian it was 20400 nM; in the assay with IGROV1 ovarian, 92.8 nM; with LOX IMVI melanoma it was 11100 nM; in the assay on DU-145 prostate, greater than 57300 nM; in the assay with TK-10 renal, 341 nM. Further, the TGI was determined as 16000 nM with SR leukemia, 3130 nM in the assay on PC-3 prostate, 198 nM with SF-268 CNS and 61.4 nM in the assay on HOP-92 NSCLC.

With `CNC(=O)c1c(NC(=O)c2ccc(C(F)(F)F)cc2)sc2c1CCC(=O)C2`, the GI50 is 837 nM with MCF7 breast; 604 nM in the assay on OVCAR-4 ovarian; 471 nM with IGROV1 ovarian; 361 nM in the assay on LOX IMVI melanoma; 4180 nM in the assay on DU-145 prostate; 815 nM with TK-10 renal. Further, the GI50 in the assay on SR leukemia was 356 nM; with PC-3 prostate it was 186 nM; in the assay on SF-268 CNS, 995 nM; in the assay on HOP-92 NSCLC, 256 nM. Further, the TGI was 4130 nM in the assay with MCF7 breast; 1920 nM in the assay with OVCAR-4 ovarian; 4890 nM in the assay with IGROV1 ovarian; 2270 nM in the assay on LOX IMVI melanoma; greater than 100000 nM in the assay on DU-145 prostate; 21200 nM in the assay with TK-10 renal. Moreover, the TGI with SR leukemia is greater than 100000 nM; in the assay on PC-3 prostate, 1350 nM; in the assay with SF-268 CNS, greater than 37900 nM; with HOP-92 NSCLC, 2150 nM.

Turning to `Cc1ccc2c(c1)C(C)Cc1c(ncnc1-n1cnc3cc(C)ccc31)N2C` (centres undefined), the GI50 was 34.5 nM with MCF7 breast; 72.9 nM in the assay with OVCAR-4 ovarian; 63.3 nM in the assay on IGROV1 ovarian; 36.1 nM in the assay with LOX IMVI melanoma; 37.9 nM in the assay with DU-145 prostate; 86.6 nM in the assay with TK-10 renal. For the same compound, the GI50 is 44.9 nM in the assay with SR leukemia, 43.4 nM in the assay on PC-3 prostate, 45 nM with SF-268 CNS and 301 nM in the assay with HOP-92 NSCLC. The TGI amounted to 12800 nM with MCF7 breast; 19000 nM with OVCAR-4 ovarian; 15700 nM in the assay with IGROV1 ovarian; 12200 nM in the assay with LOX IMVI melanoma; 11100 nM in the assay on DU-145 prostate; 21100 nM in the assay with TK-10 renal. Also, the TGI with SR leukemia was determined as 13400 nM; in the assay with PC-3 prostate it was 16500 nM; in the assay with SF-268 CNS, 12300 nM; in the assay with HOP-92 NSCLC it was 5210 nM.

Regarding `CCc1c2c(nc3cc4c(c(N)c13)OCO4)-c1cc3c(c(=O)n1C2)COC(=O)[C@]3(O)CC`, the GI50 is less than 1 nM in the assay on MCF7 breast; 130 nM and 350 nM in the assay on OVCAR-4 ovarian; 161 nM and 128 nM in the assay with IGROV1 ovarian; less than 1 nM in the assay on LOX IMVI melanoma; less than 1 nM in the assay with DU-145 prostate; 3030 nM and 483 nM in the assay on TK-10 renal. Further, the GI50 is 228 nM and 28.8 nM in the assay on PC-3 prostate; 6.02 nM with HOP-92 NSCLC. Besides, the TGI is 29.8 nM in the assay with MCF7 breast; greater than 100000 nM in the assay with OVCAR-4 ovarian; 134 nM and 190 nM in the assay with LOX IMVI melanoma; greater than 100000 nM in the assay on DU-145 prostate; 6250 nM with TK-10 renal; greater than 100000 nM in the assay with SR leukemia. Besides, the TGI in the assay on PC-3 prostate is greater than 100000 nM; with SF-268 CNS, 15200 nM; with HOP-92 NSCLC, 562 nM and 992 nM.

As to `CC1=C(C(=O)Nc2ccccc2C)C(c2ccc(C3C(C(=O)Nc4ccccc4C)=C(C)NC(C)=C3C(=O)Nc3ccccc3C)cc2)C(C(=O)Nc2ccccc2C)=C(C)N1`, the TGI was 19500 nM in the assay with MCF7 breast; 22100 nM in the assay on OVCAR-4 ovarian; 9500 nM in the assay with IGROV1 ovarian; 3630 nM in the assay with LOX IMVI melanoma; 32100 nM with DU-145 prostate; 24200 nM in the assay with TK-10 renal. The TGI came to 8560 nM in the assay on SR leukemia, 16100 nM in the assay on PC-3 prostate, 7180 nM with SF-268 CNS and 20600 nM with HOP-92 NSCLC.

`CCN1C(=O)N(CC)C2C1NN=c1s/c(=C\c3ccccc3F)c(=O)n12` (centres undefined): the GI50 with MCF7 breast is 32.5 nM; in the assay with OVCAR-4 ovarian it was 66.8 nM; in the assay with IGROV1 ovarian it was 51.2 nM; in the assay on LOX IMVI melanoma, 41.1 nM; in the assay on DU-145 prostate, 39.8 nM; with TK-10 renal, 1680 nM. Further, the GI50 is 27.8 nM in the assay with SR leukemia, 40 nM with PC-3 prostate, 67.9 nM in the assay on SF-268 CNS and 1110 nM in the assay on HOP-92 NSCLC. The TGI is greater than 63600 nM with MCF7 breast; greater than 100000 nM in the assay on OVCAR-4 ovarian; greater than 43400 nM with IGROV1 ovarian; greater than 100000 nM in the assay with LOX IMVI melanoma; greater than 100000 nM with DU-145 prostate; greater than 63600 nM in the assay on TK-10 renal. In addition, the TGI in the assay with SR leukemia was greater than 74700 nM; in the assay on PC-3 prostate it was greater than 100000 nM; in the assay on SF-268 CNS, greater than 67400 nM; in the assay with HOP-92 NSCLC, 69000 nM.

As for `C[C@H](N)C(=O)N[C@@H]1[C@H]2C(=C(O)C[C@@H](O)[C@@H]2O)C(=O)O[C@]1(C)C(Cl)Cl`, the TGI in the assay with MCF7 breast is 1520 nM; in the assay with OVCAR-4 ovarian, 3030 nM and 841 nM; with IGROV1 ovarian it was 7790 nM and 2430 nM; in the assay on LOX IMVI melanoma, 454 nM and 675 nM; in the assay with TK-10 renal it was 6920 nM and 2060 nM; in the assay on SR leukemia it was 7550 nM. Also, the TGI was 3890 nM and 1370 nM in the assay on PC-3 prostate; 2800 nM and 2590 nM in the assay with SF-268 CNS; 1190 nM and 736 nM with HOP-92 NSCLC. Also, the GI50 was 263 nM in the assay on OVCAR-4 ovarian; 441 nM with IGROV1 ovarian; 106 nM in the assay with LOX IMVI melanoma; 372 nM in the assay with DU-145 prostate; 685 nM with TK-10 renal; 255 nM in the assay on SR leukemia. Further, the GI50 is 150 nM with SF-268 CNS and 223 nM in the assay with HOP-92 NSCLC.
